Results published in Sander's compilation of Henry's law constants (doi:10.1021/je700612b).

Test: Henry solubility constant Hcp at 298.15 K (mol/(m3 Pa))
Conditions: reference: Ji et al. (2008)

Row | SMILES | Henry solubility constant Hcp
1 | COc1cccc(C(C)=O)c1 [3′-methoxyacetophenone] | 19
2 | CC(=O)c1ccccc1C [2′-methylacetophenone] | 0.76
3 | COc1cccc(C=O)c1 [3-methoxybenzaldehyde] | 5.1
4 | COc1ccccc1C(C)=O [2′-methoxyacetophenone] | 17
5 | CC(=O)c1ccccc1 [1-phenylethanone] | 1.2
6 | Cc1ccccc1C=O [2-methylbenzaldehyde] | 0.31
7 | Cc1cccc(C=O)c1 [3-methylbenzaldehyde] | 0.35
8 | CCC(=O)c1ccccc1 [phenyl ethyl ketone] | 0.99
9 | COc1ccc(C=O)cc1 [4-methoxybenzaldehyde] | 24
10 | COc1ccccc1C=O [2-methoxybenzaldehyde] | 10
11 | CC(=O)c1cccc(C)c1 [3′-methylacetophenone] | 1.5
12 | CC(=O)c1ccc(C)cc1 [4'-methylacetophenone] | 1.8
13 | CC(=O)c1ccccc1O [2′-hydroxyacetophenone] | 1
